The results in this text go back to patent US20190359645A1, “2'3'-CYCLIC DINUCLEOTIDES COMPRISING CARBOCYCLIC NUCLEOTIDE” (Institute of Organic Chemistry and Biochemistry ASCR, V.V.I., priority 2018, published 2019).

The target in this experiment is T1, AQ STING (G230A-R293Q) (Homo sapiens, UniProt Q86WV6, G230A/H232R/R293Q).
T1 construct: truncated human WT STING or AQ STING (amino acid residues 140-343); 8xHis (N, cleaved yes); SUMO (N, cleaved yes); made in house; host or cells: E. coli Rosetta-gami B (DE3)
T1 sequence (Q86WV6 140-343 G230A/H232R/R293Q): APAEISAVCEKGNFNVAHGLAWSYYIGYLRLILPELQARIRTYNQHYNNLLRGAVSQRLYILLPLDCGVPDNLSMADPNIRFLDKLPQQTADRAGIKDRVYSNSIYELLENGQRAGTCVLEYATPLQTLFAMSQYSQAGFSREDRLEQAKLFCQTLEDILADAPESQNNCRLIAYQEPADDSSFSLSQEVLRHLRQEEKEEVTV
Kind of experiment: Differential scanning fluorimetry (DSF) with AQ STING. To be noted: thermal shift, truncated human AQ STING 0.1 mg/ml, 150 μM CDN; for ΔTm at 150 µM: read-out: DSF ΔTm AQ STING. The experiment is classed as binding. The text has this: Both WT and AQ human STING (G230A-R^293Q) cDNA were amplified by the use of PCR (Phusion® High-Fidelity DNA Polymerase, cat. # M0530S, NEB, Ipswich, USA) using oligonucleotides hSTING140-BamH-For ([…]) (SEQ ID NO:5) and hSTING379-Not-Rev3 ([…]) (SEQ ID NO:6) from pUNOI-hSTING-WT (cat. # punol-hstingwt, InvivoGen, San Diego, USA) and pUNO1-hSTING-HAQ plasmids (punol-hsting-haq, InvivoGen, San Diego, USA). Purified PCR products were cleaved with restriction enzymes BamHI (cat. # R^0136S, NEB, Ipswich, USA) and NotI (cat. # R^0189S, NEB, Ipswich, USA) and cloned into the pSUMO vector linearized with the identical enzymes. Plasmid pSUMO was created by introducing 8-His-SUMO sequence between NdeI and BamHI sites of pHis-parallel2 plasmid (Clontech, Moutain View, USA). pSUMO-STING WT or pSUMO-STING AQ plasmids thus encoded truncated human WT STING or AQ STING (amino acid residues 140-343) with N-terminal 8×His and SUMO tag.
The recombinant WT STING and AQ STING proteins were overexpressed in Rosetta-gami B (DE3) competent cells (cat. #71136-3, Merck Millipore, Billerica, USA). Bacterial pellets were re-suspended in ice-cold lysis buffer containing 50 mmol·l^−1 TrisCl (cat. # T1503, Sigma Aldrich, Czech Republic) pH 8.0, 300 mmol·l^−1 NaCl, 3 mmol·l^−1 (3-mercaptoethanol (cat. # M6250, Sigma Aldrich, Czech Republic), 10% glycerol (cat. #G5516, Sigma Aldrich, Czech Republic) and 20 mmol·l^−1 imidazole (cat. #15513, Sigma Aldrich, Czech Republic) using Dounce homogenizer. DNase I (cat. # D5025, Sigma Aldrich, Czech Republic) and RNase A (cat. # R^6513, Sigma Aldrich, Czech Republic) were added (final concentration 50 μg/ml) together with MgCl2 (final concentration 5 mmol·l^−1) to the homogenate and bacteria were lysed using French Press G-M™ High-Pressure Cell Press Homogenizer (1500 psi, 3 cycles). Lysate was spun 30,000 g for 20 minutes and supernatant was gently stirred with Ni-NTA resin (cat. #745400.25 Macherey-Nagel, Duren, Germany) for 30 minutes. The resin was poured into a chromatography column, washed with 50 ml buffer A (50 mmol·l^−1 TrisCl (pH 8.0), 800 mmol·l^−1 NaCl, 3 mmol·l^−1β-mercaptoethanol; 10% glycerol; 20 mmol·l^−1 imidazole) and 8-His-SUMO tagged STING proteins were eluted with 15 ml buffer A containing 300 mmol·l^−1 imidazole. The eluted proteins were cleaved with recombinant SUMO protease (80 pig/ml of protein solution, cat. #12588018, ThermoFisher, Waltham, USA). The proteins were further purified by size exclusion chromatography using HiLoad 16/60 Superdex 75 (cat. #28989333, GE Healthcare Bio-Sciences, Pittsburgh, USA) in 50 mmol·l^−1 Tris C1 buffer pH 7.4 containing 150 mmol·l^−1 NaCl, and 10% glycerol. Proteins were concentrated with Amicon® Ultra-15 10 K device (cat. # UFC901008, Merck Millipore, Billerica, USA) and flash frozen in liquid N2.
WT and AQ allelic forms of STING protein were diluted to the final concentration 0.1 mg/ml in 100 mmol·l^−1 TrisCl buffer pH 7.4 containing, 150 mmol·l^−1 NaCl, 1:500 SYPRO Orange (cat. # S6650, ThermoFisher, Waltham, USA) and 150 μM CDN or water. 20 μL solutions of the reaction mixtures were pipetted in triplicates into 96 well optical reaction plates and thermal denaturation of samples were performed on real time PCR cycler (LightCycler® 480 Instrument II—Roche, Basel, Switzerland). The first derivative of the thermal denaturation curves was performed to calculate denaturing temperatures of STING-CDN complexes and STING apoproteins. The thermal shift for each CDN was calculated by subtracting the average denaturing temperature of STING apoprotein from the average denaturing temperature of STING CDN complex.

For `CSc1ncnc2c1ncn2[C@@H]1O[C@@H]2COP(=O)(O)OC3C(O)[C@@H](COP(=O)(O)OC2C1O)C[C@H]3n1cnc2c(=O)[nH]cnc21` (stereo partly drawn) [Compound 125, (1S,6R,8R,9R,10S,15R,17R,18R)-3,9,12,18-tetrahydroxy-8-[16-(methylsulfanyl)-9H-purin-9-yl]-17-(6-oxo-6,9-dihydro-1H-purin-9-yl)-2,4,7,11,13-pentaoxa-3λ^5,12λ^5-diphosphatricyclo[13.2.1.0^6,10]octadecane-3,12-dione], the ΔTm at 150 µM came out at 11.4 °C.
`Nc1ncnc2c1ncn2[C@@H]1O[C@@H]2COP(=O)(O)OC3C(O)[C@@H](COP(=O)(O)OC2C1O)C[C@H]3n1cnc2c(=O)[nH]cnc21` (stereo partly drawn) [Compound 121, (6R,8R,15R,17R)-8-(6-amino-9H-purin-9-yl)-3,9,12,18-tetrahydroxy-17-(6-oxo-6,9-dihydro-1H-purin-9-yl)-2,4,7,11,13-pentaoxa-3λ^5,12λ^5-diphosphatricyclo[13.2.1.0^6,10]octadecane-3,12-dione]: the “DSF ΔTm AQ STING” value worked out at 17.0 °C.
Turning to `Nc1ncnc2c1ncn2[C@@H]1O[C@@H]2COP(=O)(S)O[C@@H]3[C@H](F)[C@@H](COP(=O)(S)O[C@H]2[C@H]1F)C[C@H]3n1cnc2c(=O)[nH]cnc21` (single isomer, unassigned) [Compound 128a], the ΔTm at 150 µM was 16.5 °C.
The same measure, in the same setting: the value for `CSc1nc(N)nc2c1ncn2[C@@H]1O[C@@H]2COP(=O)(O)OC3C(O)[C@@H](COP(=O)(O)OC2C1O)C[C@H]3n1cnc2c(=O)[nH]c(N)nc21` (stereo partly drawn) [Compound 112, (6R,8R,15R,17R)-8-[2-amino-6-(methylsulfanyl)-9H-purin-9-yl]-17-(2-amino-6-oxo-6,9-dihydro-1H-purin-9-yl)-3,9,12,18-tetrahydroxy-2,4,7,11,13-pentaoxa-3λ^5,12λ^5-diphosphatricyclo[13.2.1.0^6,10]octadecane-3,12-dione] was 4.7 °C; that for `Nc1nc2c(ncn2[C@@H]2C[C@@H]3COP(=O)(O)OC4C(O)[C@H](n5cnc6c(=O)[nH]cnc65)O[C@@H]4COP(=O)(O)OC2C3O)c(=O)[nH]1` (stereo partly drawn) [Compound 104, (6R,8R,15R,17R)-17-(2-amino-6-oxo-6,9-dihydro-1H-purin-9-yl)-3,9,12,18-tetrahydroxy-8-(6-oxo-6,9-dihydro-1H-purin-9-yl)-2,4,7,11,13-pentaoxa-3λ^5,12λ^5-diphosphatricyclo[13.2.1.0^6,10]octadecane-3,12-dione] was 13.3 °C.
The same measure, in the same setting: for `Nc1ncnc2c1ccn2[C@@H]1O[C@@H]2COP(=O)(O)OC3C(O)[C@@H](COP(=O)(O)OC2C1O)C[C@H]3n1cnc2c(=O)[nH]cnc21` (stereo partly drawn) [Compound 122, (6R,8R,15R,17R)-8-{4-amino-7H-pyrrolo[2,3-d]pyrimidin-7-yl}-3,9,12,18-tetrahydroxy-17-(6-oxo-6,9-dihydro-1H-purin-9-yl)-2,4,7,11,13-pentaoxa-3λ^5,12λ^5-diphosphatricyclo[13.2.1.0^6,10]octadecane-3,12-dione] the value was 14.6 °C; for `Nc1nc(N)c2ncn([C@@H]3O[C@@H]4COP(=O)(O)OC5C(O)[C@@H](COP(=O)(O)OC4C3O)C[C@H]5n3cnc4c(=O)[nH]c(N)nc43)c2n1` (stereo partly drawn) [Compound 105, (6R,8R,15R,17R)-17-(2-amino-6-oxo-6,9-dihydro-1H-purin-9-yl)-8-(2,6-diamino-9H-purin-9-yl)-3,9,12,18-tetrahydroxy-2,4,7,11,13-pentaoxa-3λ^5,12λ^5-diphosphatricyclo[13.2.1.0^6,10]octadecane-3,12-dione], 13.2 °C.
On to `CSc1ncnc2c1ncn2[C@@H]1O[C@@H]2COP(=O)(O)OC3C(O)[C@@H](COP(=O)(O)OC2C1O)C[C@H]3n1cnc2c(=O)[nH]c(N)nc21` (stereo partly drawn) [Compound 110, (6R,8R,15R,17R)-17-(2-amino-6-oxo-6,9-dihydro-1H-purin-9-yl)-3,9,12,18-tetrahydroxy-8-[6-(methylsulfanyl)-9H-purin-9-yl]-2,4,7,11,13-pentaoxa-3λ^5,12λ^5-diphosphatricyclo[13.2.1.0^6,10]octadecane-3,12-dione], for which the shift in melting temperature (ΔTm) at 150 µM is 10.1 °C.
The same measure, in the same setting: the value for `Nc1nc2c(ncn2[C@@H]2C[C@@H]3COP(=O)(O)OC4C(O)[C@H](n5cnc6c(N)ncnc65)O[C@@H]4COP(=O)(O)OC2C3O)c(=O)[nH]1` (stereo partly drawn) [Compound 102, (6R,8R,15R,17R)-17-(2-amino-6-oxo-6,9-dihydro-1H-purin-9-yl)-8-(6-amino-9H-purin-9-yl)-3,9,12,18-tetrahydroxy-2,4,7,11,13-pentaoxa-3λ^5,12λ^5-diphosphatricyclo[13.2.1.0^6,10]octadecane-3,12-dione] was 19.8 °C; that for `Nc1ncnc2c1c(I)cn2[C@@H]1O[C@@H]2COP(=O)(O)OC3C(O)[C@@H](COP(=O)(O)OC2C1O)C[C@H]3n1cnc2c(=O)[nH]cnc21` (stereo partly drawn) [Compound 124, (6R,8R,15R,17R)-8-{4-amino-5-iodo-7H-pyrrolo[2,3-d]pyrimidin-7-yl}-3,9,12,18-tetrahydroxy-17-(6-oxo-6,9-dihydro-1H-purin-9-yl)-2,4,7,11,13-pentaoxa-3λ^5,12λ^5-diphosphatricyclo[13.2.1.0^6,10]octadecane-3,12-dione] was 11.3 °C.
`Nc1ncnc2c1ncn2[C@@H]1O[C@@H]2COP(=O)(S)O[C@@H]3[C@H](F)[C@@H](COP(=O)(S)O[C@H]2[C@H]1F)C[C@H]3n1cnc2c(=O)[nH]cnc21` (single isomer, unassigned) [Compound 128b]: the “DSF ΔTm AQ STING” value was 13.8 °C.
For `Cc1cn([C@@H]2O[C@@H]3COP(=O)(O)OC4C(O)[C@@H](COP(=O)(O)OC3C2O)C[C@H]4n2cnc3c(=O)[nH]cnc32)c2ncnc(N)c12` (stereo partly drawn) [Compound 123, (6R,8R,15R,17R)-8-{4-amino-5-methyl-7H-pyrrolo[2,3-d]pyrimidin-7-yl}-3,9,12,18-tetrahydroxy-17-(6-oxo-6,9-dihydro-1H-purin-9-yl)-2,4,7,11,13-pentaoxa-3λ^5,12λ^5-diphosphatricyclo[13.2.1.0^6,10]octadecane-3,12-dione], the ΔTm at 150 µM amounted to 12.1 °C.
For the compound `Nc1ncnc2c1ncn2[C@@H]1O[C@@H]2COP(=O)(S)O[C@@H]3[C@H](F)[C@@H](COP(=O)(S)O[C@H]2[C@H]1F)C[C@H]3n1cnc2c(=O)[nH]cnc21` (single isomer, unassigned) [Compound 128d], the “DSF ΔTm AQ STING” value was found to be 21.3 °C.
For `Nc1nc2c(ncn2[C@@H]2C[C@@H]3COP(=O)(O)OC4C(N)[C@H](n5cnc6c(N)ncnc65)O[C@@H]4COP(=O)(O)OC2C3O)c(=O)[nH]1` (stereo partly drawn) [Compound 109, (6R,8R,15R,17R)-9-amino-17-(2-amino-6-oxo-6,9-dihydro-1H-purin-9-yl)-8-(6-amino-9H-purin-9-yl)-3,12,18-trihydroxy-2,4,7,11,13-pentaoxa-3λ^5,12λ^5-diphosphatricyclo[13.2.1.0^6,10]octadecane-3,12-dione], the ΔTm at 150 µM came to 12.8 °C.
